From US11702441B2, “Spirobicyclic analogues” (Janssen Pharmaceutica NV, priority 2017, dated 2023)

Molecular target: T1, PRMT5-MEP50 enzyme (Homo sapiens, UniProt O14744)
T1 construct: One virus expresses full length human PRMT5 with Flag-tag at N-terminus; Flag (N); purchased Charles River (Argenta); host or cells: insect cells (Sf9), baculovirus co-infection
Assay: High throughput mass spectrometer assay of PRMT5-MEP50 enzyme activity (SAH formation)
Type: biochemical
Details: averaged values; inhibition of SAH formation; 1 μM SAM, 0.3 μM H2A, 1.25 nM enzyme, 30° C.
Text: Reagents. PRMT5-MEP50 enzyme was purchased from Charles River (Argenta). The enzyme complex was produced in insect cells (Sf9) infected simultaneously with two baculoviruses. One virus expresses full length human PRMT5 with Flag-tag at N-terminus, the second virus expresses full length MEP50 with His6-TEV cleavage at N-terminus. The protein was affinity purified using anti-Flag (M2) beads eluted with 3×FLAG peptide, followed by His-Select eluted with 0.5M imidazole. Eluted protein was then dialysed against tris-buffered saline (TBS) (pH 8.0) containing 20% glycerol and 3 mM dithiothreitol (DTT).
Full-length untagged human recombinant histone H2A (residues 1-130, Genbank Accession #NM_021052, MW=14.1 kDa) expressed in E. coli was purchased from Reaction Biology Corporation, Cat #HMT-11-146. Reagents used for making reaction buffer or stopping reaction were purchased including Tris base (Sigma Cat #T-1503), NaCl (Sigma Cat #RGF-3270), MgCl2 (Sigma Cat #M0250), DTT (Invitrogen Cat #15508-013) and Formic Acid (Riedel deHaen, Cat #33015)
High Throughput Mass Spectrometer Assay PRMT5 catalyzes the sequential methylations of the terminal nitrogen atoms on the guanidine groups of arginine residues within proteins using co-substrate S-adenosyl-L-methionine (AdoMet, SAM), forming mono-methyl (MMA), symmetric-dimethyl arginine (sDMA) and S-adenosyl-L-homocysteine (AdoHcy, SAH). The enzyme activity was determined by following the product SAH formation using high throughput mass spectrometry (Agilent Rapidfire 300 System coupled to a Sciex 4000 series QTrap® triple-quad MS/MS). The reaction buffer was 20 mM Tris-HCl, pH 8.5, 50 mM NaCl. 5 mM MgCl2 and 1 mM DTT. The reaction activity was stopped using 1% formic acid (final concentration).
Inhibition Studies. The IC50 Studies were performed using eleven point dosing series made for each compound by serially diluted 1:2 in dimethyl sulfoxide (DMSO), with point 12 being a DMSO control. Compounds were first spotted to plates, and followed by addition of 2 μM SAM and 0.6 μM H2A (histone H2A) solution mixture. The same volume of enzyme solution was added to initiate the enzymatic reactions. The final concentrations of the reaction are at 1 μM SAM, 0.3 μM H2A and 1.25 nM enzyme. The reaction was incubated at 30° C. for 60 minutes (min) when 10 nM enzyme was used and for 120 min when 1.25 nM enzyme was used. Subsequently, the reaction was quenched by addition of formic acid to a final concentration of 1%. The inhibitions of SAH formation in the presence of compounds were calculated as a percentage of the control relative to the uninhibited reaction as a function of inhibitor concentration. The data were fit as follows: Y=Bottom+(Top−Bottom)/(1+10^((log IC50−X)*h))
where IC50 is the inhibitor concentration (same unit as X) at 50% inhibition and h is the Hill slope. Y is percent of inhibition, X is log of compound concentration. Bottom and Top are the plateaus in same units as Y.
The pIC50 values in the Table below are averaged values (Co. No. means compound number: n.d. means not determined)

T1 sequence (O14744 whole entry): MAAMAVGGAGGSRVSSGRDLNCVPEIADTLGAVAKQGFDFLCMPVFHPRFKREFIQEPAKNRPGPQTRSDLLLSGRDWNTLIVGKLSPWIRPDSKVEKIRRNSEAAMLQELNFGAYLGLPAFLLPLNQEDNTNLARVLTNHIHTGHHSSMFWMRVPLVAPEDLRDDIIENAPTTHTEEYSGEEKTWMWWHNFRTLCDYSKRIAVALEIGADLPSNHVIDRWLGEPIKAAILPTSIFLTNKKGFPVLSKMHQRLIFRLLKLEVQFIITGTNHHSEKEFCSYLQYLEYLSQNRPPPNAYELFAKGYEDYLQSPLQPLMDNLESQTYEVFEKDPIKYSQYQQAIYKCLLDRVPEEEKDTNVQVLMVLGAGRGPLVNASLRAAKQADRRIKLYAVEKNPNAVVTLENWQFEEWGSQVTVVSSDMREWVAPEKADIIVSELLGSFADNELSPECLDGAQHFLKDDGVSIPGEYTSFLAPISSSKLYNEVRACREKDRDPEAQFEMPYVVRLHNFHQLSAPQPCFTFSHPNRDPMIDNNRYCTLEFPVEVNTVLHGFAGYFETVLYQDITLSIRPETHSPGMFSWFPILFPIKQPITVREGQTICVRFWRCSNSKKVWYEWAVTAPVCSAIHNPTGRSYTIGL
T1 sequence (Q9BQA1 whole entry partner): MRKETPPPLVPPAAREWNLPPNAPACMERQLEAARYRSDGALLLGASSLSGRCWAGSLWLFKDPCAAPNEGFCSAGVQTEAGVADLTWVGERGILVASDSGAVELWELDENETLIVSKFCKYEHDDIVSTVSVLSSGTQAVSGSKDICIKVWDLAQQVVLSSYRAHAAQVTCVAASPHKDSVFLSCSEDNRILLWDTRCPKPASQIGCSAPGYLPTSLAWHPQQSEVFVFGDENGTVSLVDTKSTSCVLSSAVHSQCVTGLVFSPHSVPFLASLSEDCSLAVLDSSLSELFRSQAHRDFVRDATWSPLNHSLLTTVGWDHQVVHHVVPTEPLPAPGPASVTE

SMILES	pIC50	IC50 [nM]
Cl.Nc1ncnc2c1ccn2[C@@H]1CC2(CC(Cn3c(Cl)cccc3=O)C2)[C@@H](O)[C@H]1O (mixture of isomers) [Compound 32]	5.69	
Nc1ncnc2c1ccn2[C@@H]1C[C@]2(C[C@H](CO)C2)[C@@H](O)[C@H]1O (single isomer, unassigned) [Compound 35]		933
Nc1ncnc2c1ccn2[C@@H]1C[C@]2(C[C@@H](CO)C2)[C@@H](O)[C@H]1O (single isomer, unassigned) [Compound 36]		1410
Nc1ncnc2c1ncn2[C@@H]1O[C@]2(C[C@@H](OCc3ccccc3)C2)[C@@H](O)[C@H]1O [Compound 1]		3020
Nc1ccc2ccc(O[C@H]3C[C@]4(C3)O[C@@H](n3cnc5c(N)ncnc53)[C@H](O)[C@@H]4O)cc2n1 [Compound 2]		30.9
Nc1ncnc2c1ncn2[C@@H]1O[C@]2(C[C@@H](Oc3ccc4ccc(Cl)nc4c3)C2)[C@@H](O)[C@H]1O [Compound 3]		8130
Nc1ncnc2c1ncn2[C@@H]1O[C@]2(C[C@@H](Oc3ccc4cc(Br)cnc4c3)C2)[C@@H](O)[C@H]1O [Compound 4]		3020
Nc1ccc2ccc(O[C@H]3C[C@@]4(C3)O[C@@H](n3cnc5c(N)ncnc53)[C@H](O)[C@@H]4O)cc2n1 [Compound 5]		9.33
Nc1ncnc2c1ncn2[C@@H]1O[C@]2(C[C@H](Oc3ccc4cc(Br)cnc4c3)C2)[C@@H](O)[C@H]1O [Compound 6]		120
Nc1ncnc2c1ncn2[C@@H]1O[C@]2(C[C@@H](O)C2)[C@@H](O)[C@H]1O [Compound 7]		5010
Nc1ncnc2c1ncn2[C@@H]1O[C@]2(C[C@H](O)C2)[C@@H](O)[C@H]1O [Compound 8]		3550
Nc1ncnc2c1ncn2[C@@H]1O[C@]2(C[C@H](Oc3ccc4cc(Cl)cnc4c3)C2)[C@@H](O)[C@H]1O [Compound 9]		257
Nc1ncnc2c1ccn2[C@@H]1C[C@]2(C[C@H](Oc3ccc4cccnc4c3)C2)[C@@H](O)[C@H]1O [Compound 11]		91.2
Nc1ncnc2c1ccn2[C@@H]1C[C@]2(C[C@H](Oc3ccc4cc(Cl)cnc4c3)C2)[C@@H](O)[C@H]1O [Compound 12]		2400
Nc1ncnc2c1ccn2[C@@H]1C[C@]2(C[C@@H](Oc3ccc4cc(Cl)cnc4c3)C2)[C@@H](O)[C@H]1O [Compound 13]		646
Nc1ncnc2c1ccn2[C@@H]1C[C@]2(C[C@H](Cc3ccc4cc(Cl)cnc4c3)C2)[C@@H](O)[C@H]1O [Compound 14]		2000
Nc1ncnc2c1ccn2[C@@H]1C[C@]2(C[C@@H](Cc3ccc4cc(Cl)cnc4c3)C2)[C@@H](O)[C@H]1O [Compound 15]		1100
Nc1ncnc2c1ccn2[C@@H]1C[C@]2(C[C@H](Cc3ccc4scnc4c3)C2)[C@@H](O)[C@H]1O [Compound 16]		490

SMILES	pIC50	IC50 [nM]
Nc1ncnc2c1ccn2[C@@H]1C[C@]2(C[C@@H](Cc3ccc4scnc4c3)C2)[C@@H](O)[C@H]1O [Compound 17]		389
Nc1nc2cc(C[C@H]3C[C@]4(C[C@@H](n5ccc6c(N)ncnc65)[C@H](O)[C@@H]4O)C3)ccc2s1 [Compound 18]		35.5
Nc1nc2cc(C[C@H]3C[C@@]4(C[C@@H](n5ccc6c(N)ncnc65)[C@H](O)[C@@H]4O)C3)ccc2s1 [Compound 19]		132
Nc1ncnc2c1ccn2[C@@H]1C[C@]2(C[C@H](Cc3ccc4ncsc4c3)C2)[C@@H](O)[C@H]1O [Compound 20]		490
Nc1ncnc2c1ccn2[C@@H]1C[C@]2(C[C@@H](Cc3ccc4ncsc4c3)C2)[C@@H](O)[C@H]1O [Compound 21]		145
Nc1nc2ccc(C[C@H]3C[C@]4(C[C@@H](n5ccc6c(N)ncnc65)[C@H](O)[C@@H]4O)C3)cc2s1 [Compound 22]		1580
Nc1nc2ccc(C[C@H]3C[C@@]4(C[C@@H](n5ccc6c(N)ncnc65)[C@H](O)[C@@H]4O)C3)cc2s1 [Compound 23]		295
Nc1ncnc2c1ccn2[C@@H]1C[C@]2(C[C@H](Cc3ccn4ccnc4c3)C2)[C@@H](O)[C@H]1O [Compound 24]		9.12
Nc1ncnc2c1ccn2[C@@H]1C[C@]2(C[C@@H](Cc3ccn4ccnc4c3)C2)[C@@H](O)[C@H]1O [Compound 25]		10.2
Nc1ncnc2c1ccn2[C@@H]1C[C@]2(C[C@H](Cc3ccccn3)C2)[C@@H](O)[C@H]1O [Compound 26]		2450
Nc1ncnc2c1ccn2[C@@H]1C[C@]2(C[C@@H](Cc3ccccn3)C2)[C@@H](O)[C@H]1O [Compound 27]		5620
Nc1ncnc2c1ccn2[C@@H]1C[C@]2(C[C@H](Cc3cccnc3)C2)[C@@H](O)[C@H]1O [Compound 28]		145
Nc1ncnc2c1ccn2[C@@H]1C[C@]2(C[C@@H](Cc3cccnc3)C2)[C@@H](O)[C@H]1O [Compound 29]		170
Nc1ncnc2c1ccn2[C@@H]1C[C@]2(C[C@H](COc3cccc(Cl)n3)C2)[C@@H](O)[C@H]1O [Compound 30]		1620
Nc1ncnc2c1ccn2[C@@H]1C[C@]2(C[C@@H](COc3cccc(Cl)n3)C2)[C@@H](O)[C@H]1O [Compound 31]		3470
Nc1nc2cc(C[C@H]3C[C@]4(C[C@@H](n5ccc6c(N)ncnc65)[C@H](O)[C@@H]4O)C3)ccc2cc1Br [Compound 33]		245
Nc1ncnc2c1ncn2[C@@H]1O[C@]2(C[C@H](Cc3ccc4cc(Cl)cnc4c3)C2)[C@@H](O)[C@H]1O [Compound 44]		4570
Nc1ncnc2c1ncn2[C@@H]1O[C@]2(C[C@@H](Cc3ccc4cc(Cl)cnc4c3)C2)[C@@H](O)[C@H]1O [Compound 45]		5500
